Key:
[1] = tested on: Salmonella typhimurium TA 98; test: Mutagenicity, reversion assay, TA 98; assay type: cell-based; settings: 5,000 μg/plate; control 13
Method: (ii) The strains TA 98 and TA 100 (both are histidine requiring) of Salmonella typhimurium were used in the reversion assay.
Into 2 ml of a soft agar culture medium (the medium itself contains 6 g of sodium chloride and 6 g of agar in 1000 ml of distilled water) to which one tenth by volume of an aqueous solution of 0.5 mM of biotin and 0.5 mM of histidine had been added, 0.1 ml of the bacterial suspension and 0.1 ml of an aqueous solution of the present substance were admixed and the mixture was layered on the minimum agar culture medium. After 2 days of incubation at 37° C., the number of revertant colonies was counted. Furylfuramide (AF-2) was used as the positive control.

[2] = tested on: dog's stomach; assay type: in vivo, Beagle dog; settings: dog, in vivo
Method: Five grams of the present substance (each of Specimens Nos. 1, 2, 3, 4, 5, 6, 7, 8, 9, 10 and 11) and of aspirin were respectively administered to each Beagle of body weight of 9 to 12 kg as an aqueous suspension in distilled water of adjusted pH of 3, and after 90 min of the administration, the state of hemorrhage in the dog's stomach was examined.

[3] = tested on: platelets (3 times concentrated PRP), cyclic AMP; test: Level of cyclic AMP in platelets; assay type: cell-based; settings: room temperature, 5 min
Method: PRP (platelet rich plasma) was prepared by the predetermined method and it was centrifugated for 20 min at 700XG to obtain a supernatant liquid named PPP (platelet poor plasma). The precipitate was re-floated in 1/3 times by volume of PPP to prepare 3 times concentrated PRP.
In the thus prepared concentrated PRP, each aqueous solution of the present substances of a pre-determined concentration (in this case, Specimens Nos. 4, 7 and 8) and an aqueous physiological saline solution, and the mixture was incubated at room temperature for 5 min. Then, the procedures of boiling, homogenating and centrifugating were carried out in this order, and 50 μl of the supernatant liquid was used for measuring cyclic AMP. The measurement was carried out following the method of Gilman. As a positive control, PGE1 was used.

[4] = tested on: streptozotocin diabetic rats; test: Blood sugar of diabetic rats; assay type: in vivo, male Sprague-Dowley rats; settings: 100 mg/kg p.o., 6 hours, diabetic rat; not administered 412.1, normal 76.7
Method: Groups of male Sprague-Dowley rats of body weight of about 200 g are used for the present experiments. Some groups of the rats were intravenously administered with streptozotocin at 80 mg/kg one to three months in advance of the beginning of the present experiment to be in a state of diabetes mellitus. Those rats of the same strain, the same sex and the same age without being administered with streptozotocin were used as control.
The present substances (Specimens Nos. 4, 7 and 8) were respectively administered to the groups of rats suffering from the artificial diabetes mellitus forcibly by oral route at a rate of 100 mg/kg as an aqueous solution in distilled water.
After 6 hours of the administration of the present substance, blood specimen was collected from the rat under anesthesia by ether in an amount of 0.5 ml/animal, and the content of blood sugar was measured by the enzymatic method.

[5] = tested on: cervical aorta of an SD rat, PGI2; test: PGI2 production by cuttings of cervical aorta; assay type: cell-based; settings: 50 microliters of 2% solution into 500 microliters, 10 min
Method: After extirpating the cervical aorta of an SD rat under anesthsia, it was washed with Krebs-Linger bicarbonate buffer solution and cut into thin rings, and the cutings were kept in the above-mentioned buffer solution at a rate of 1 mg of wet cuttings per 0.5 ml to produce PGI2.
Into 500 microliters of the thus prepared mixture, 50 micro-liters of an aqueous physiological saline solution containing 2% by weight of the present substance (each of Specimens Nos. 4, 7 and 8) dissolved therein were added and, since the production of PGI2 generally attains to its maximum after 10 min of keeping, a supernatant liquid (2.5 μl) of the mixture was prepared after 10 min of the addition, and then the amount of PGI2 in the supernatant liquid was determined by using the action of suppression of aggregation of the platelets as an index and using ADP as the agglutinating agent, only an aqueous physiological solution being used as control.

[6] = tested on: male Sprague-Dowley rats; test: Leakage of dye-staff after skin stimulation with histamine and PGE1; assay type: in vivo; settings: 1000 mg/kg p.o.; with histamine + PGE1
Method: To the three groups of male Sprague-Dowley rats of the total six groups, the respective present substances (Specimens Nos. 4, 7 and 8) were forcibly administered by oral route at the rate of 1000 mg/kg, the other three groups being administered nothing at this time. After 60 min of the administration, a mixture of PGE1 (2.5×10^-11 mol/animal) and histamine (2×10^-8 mol/animal) was intracutaneously injected under light […] into the shaved skin of an abdominal part of four groups of the rats including three groups administered with the present substance.

[7] = tested on: female spontaneously hypertensive rats (SHR); test: Diuretic effect and 6-keto PGF1α in blood; assay type: in vivo, rat (SHR); settings: for Level of 6-keto PGF1α in blood: control 3.0
Method: Groups of female spontaneously hypertensive rats (SHR) kept in fasting for 12 hours and abstained from water for 2 hours were treated by forced oral administration of the present substance (each of Specimens Nos. 4, 7 and 8) at respective rates of 1 and 5 g/kg dissolved in 8 ml (per 200 g b.w.) of an aqueous physiological saline solution, control group being administered only with the aqueous physiological saline solution in an amount of 8 ml/200 g b.w.
The amount of excreted urine of the rats was measured every hour from one hour after the administration for 6 times, and the percentages of the volume of urine to the volume of the aqueous physiological saline solution containing the present substance formerly administered (8 ml per 200 g b.w.) are shown in Table 19.
In the next place, after 6 hours of the administration, all animals were sacrificed to collect the whole blood for obtaining its plasma fraction. The ether-extract of the plasma fraction was separated by thin-layer chromatography and after converting the thus separated substances into methyloximesilyl derivatives, the variation of 6 keto PGF1α was examined by gas-chromatography-mass-spectrography.

[8] = 1 g/kg p.o., 2 hours, control 9
[9] = 1 g/kg p.o., 3 hours, control 22
[10] = 1 g/kg p.o., 4 hours, control 26
[11] = 1 g/kg p.o., 5 hours, control 28
[12] = 1 g/kg p.o., 6 hours, control 30
[13] = 5 g/kg p.o., 2 hours, control 9
[14] = 5 g/kg p.o., 3 hours, control 22
[15] = 5 g/kg p.o., 4 hours, control 26
[16] = 5 g/kg p.o., 5 hours, control 28
[17] = 5 g/kg p.o., 6 hours, control 30

Row | Structure (SMILES) | Number of revertant colonies TA 98 [1] [number per plate] | hemorrhage in the stomach [2] | level of intra-platelet cyclic AMP (FIG. 7) [3] | Blood sugar [4] [mg/100 ml] | production of PGI2 by cuttings of cervical aorta (FIG. 15) [5] | Absorbance at 620 nm (dye leakage) [6] | Volume of urine ([7]; 1 g/kg p.o., 1 hour, control 2) [%] | Volume of urine [7, 8] [%] | Volume of urine [7, 9] [%] | Volume of urine [7, 10] [%] | Volume of urine [7, 11] [%] | Level of 6-keto PGF1α in blood ([7]; 1 g/kg p.o., 6 hours) [ng/mL] | Volume of urine [7, 12] [%] | Volume of urine ([7]; 5 g/kg p.o., 1 hour, control 2) [%] | Volume of urine [7, 13] [%] | Volume of urine [7, 14] [%] | Volume of urine [7, 15] [%] | Volume of urine [7, 16] [%] | Volume of urine [7, 17] [%] | Level of 6-keto PGF1α in blood ([7]; 5 g/kg p.o., 6 hours) [ng/mL]
1 | O=C(O)c1ccc(NC2OC[C@@H](O)[C@H](O)[C@H]2O)cc1 (stereo partly drawn) [Specimen No. 7, Sodium p-aminobenzoate-N--D-xyloside] | 4 | no hemorrhage in the stomach was found | raising the level of intra-platelet cellular cyclic AMP | 165.0 ± 11.0 | raised the production of PGI2 | 0.152 | 4 | 38 | 45 | 48 | 63 | 3.5 | 72 | 5 | 50 | 66 | 80 | 92 | 100 | 
2 | C[C@@H]1OC(Nc2ccc(C(=O)O)cc2)[C@H](O)[C@H](O)[C@H]1O (stereo partly drawn) [Specimen No. 8, Sodium p-aminobenzoate-N--L-rhamnoside] | 4 | no hemorrhage in the stomach was found | raising the level of intra-platelet cellular cyclic AMP | 110.1 ± 5.5 | raised the production of PGI2 | 0.162 | 5 | 39 | 47 | 50 | 65 | 3.2 | 68 | 5 | 43 | 60 | 70 | 77 | 93 | 3.7
3 | O=C(O)c1ccc(NC2O[C@H](CO)[C@@H](O)[C@H](O)[C@@H]2O)cc1 (stereo partly drawn) [Specimen No. 4, Sodium p-aminobenzoate-N--D-mannoside] | 5 | no hemorrhage in the stomach was found | raising the level of intra-platelet cellular cyclic AMP | 133.6 ± 8.3 | raised the production of PGI2 | 0.155 | 6 | 40 | 46 | 50 | 60 | 3.3 | 63 | 7 | 40 | 50 | 52 | 78 | 91 | 3.5

Source: US4440757A, “Pharmaceutical composition comprising derivative of aminobenzoic acid for regulating prostaglandin” (priority 1978, dated 1984)
